In doi:10.1101/2025.01.23.634542, “Convergent Agonist and Heat Activation of Nociceptor TRPM3” (bioRxiv, 2025):

Tests used:
[1] = tested on: wild-type TRPM3; assay: Primidone inhibition of heat-activated whole-cell currents, wild-type TRPM3; format: cell-based, rabbit; details: WT TRPM3, heat-activated whole-cell currents at 37 °C with primidone (Fig. 4d)
[2] = tested on: TRPM3 primidone binding site mutants; assay: Primidone inhibition of PregS-induced currents in primidone binding site mutants; format: cell-based, rabbit; details: PregS-induced currents with and without primidone, 22 °C (Fig. 4c)
[3] = tested on: TRPM3 CIM0216 binding site mutants; assay: CIM0216-induced whole-cell currents in CIM0216 binding site mutants; format: cell-based, rabbit; details: whole-cell currents at +140 mV, 22 °C (Fig. 1c)
From the text: Figure 1: TRPM3 activation by superagonist CIM0216. a, Structure of TRPM3 in complex with CIM0216, shown in cartoon representation and viewed parallel to the membrane. CIM0216 (green) is fitted into the cryo-EM density map (right panel). One subunit is highlighted in red, and the rib helix from the adjacent subunit is highlighted in cyan. b, Close-up view of the CIM0216 binding site, detailing key interactions. c, Whole-cell currents measured in tsA cells overexpressing wild-type TRPM3 or CIM0216 binding site mutants at 22 °C. […] CIM0216-induced current amplitudes at +140 mV were calculated by subtracting the steady-state current recorded before CIM0216 application from the steady-state current recorded after CIM0216 application. Each point represents a single cell (from left to right, n = 6, 4, 5, 4, 4, 4, 4, 4, 4, 5), with bars indicating the mean. Statistical analysis was performed using one-way ANOVA with Bonferroni’s post hoc test (***P < 0.001). d, Structural comparison of CIM0216-bound activated state (red) and apo resting state (blue), superimposed using the TMD (residues 848–1119). Root-mean-square deviations (r.m.s.d.) are shown for individual domains. Black arrows indicate the approximate direction of domain movements.

[4] = tested on: TRPM3 mutants at the interface between the MHR1/2 domain and the rib helix; assay: Agonist sensitivity of mutants at the MHR1/2 domain-rib helix interface relative to wild type; format: cell-based, rabbit; details: interface mutants versus wild type, maximum fold
[5] = molecular target: wild-type rabbit TRPM3 (rTRPM3) (Oryctolagus cuniculus, UniProt G1T6W8); assay: Whole-cell patch-clamp agonist dose-response, wild-type TRPM3 in tsA cells; format: cell-based; details: WT TRPM3, whole-cell current at +80 mV
Chain of wild-type rabbit TRPM3 (rTRPM3) (G1T6W8 entry or part of it): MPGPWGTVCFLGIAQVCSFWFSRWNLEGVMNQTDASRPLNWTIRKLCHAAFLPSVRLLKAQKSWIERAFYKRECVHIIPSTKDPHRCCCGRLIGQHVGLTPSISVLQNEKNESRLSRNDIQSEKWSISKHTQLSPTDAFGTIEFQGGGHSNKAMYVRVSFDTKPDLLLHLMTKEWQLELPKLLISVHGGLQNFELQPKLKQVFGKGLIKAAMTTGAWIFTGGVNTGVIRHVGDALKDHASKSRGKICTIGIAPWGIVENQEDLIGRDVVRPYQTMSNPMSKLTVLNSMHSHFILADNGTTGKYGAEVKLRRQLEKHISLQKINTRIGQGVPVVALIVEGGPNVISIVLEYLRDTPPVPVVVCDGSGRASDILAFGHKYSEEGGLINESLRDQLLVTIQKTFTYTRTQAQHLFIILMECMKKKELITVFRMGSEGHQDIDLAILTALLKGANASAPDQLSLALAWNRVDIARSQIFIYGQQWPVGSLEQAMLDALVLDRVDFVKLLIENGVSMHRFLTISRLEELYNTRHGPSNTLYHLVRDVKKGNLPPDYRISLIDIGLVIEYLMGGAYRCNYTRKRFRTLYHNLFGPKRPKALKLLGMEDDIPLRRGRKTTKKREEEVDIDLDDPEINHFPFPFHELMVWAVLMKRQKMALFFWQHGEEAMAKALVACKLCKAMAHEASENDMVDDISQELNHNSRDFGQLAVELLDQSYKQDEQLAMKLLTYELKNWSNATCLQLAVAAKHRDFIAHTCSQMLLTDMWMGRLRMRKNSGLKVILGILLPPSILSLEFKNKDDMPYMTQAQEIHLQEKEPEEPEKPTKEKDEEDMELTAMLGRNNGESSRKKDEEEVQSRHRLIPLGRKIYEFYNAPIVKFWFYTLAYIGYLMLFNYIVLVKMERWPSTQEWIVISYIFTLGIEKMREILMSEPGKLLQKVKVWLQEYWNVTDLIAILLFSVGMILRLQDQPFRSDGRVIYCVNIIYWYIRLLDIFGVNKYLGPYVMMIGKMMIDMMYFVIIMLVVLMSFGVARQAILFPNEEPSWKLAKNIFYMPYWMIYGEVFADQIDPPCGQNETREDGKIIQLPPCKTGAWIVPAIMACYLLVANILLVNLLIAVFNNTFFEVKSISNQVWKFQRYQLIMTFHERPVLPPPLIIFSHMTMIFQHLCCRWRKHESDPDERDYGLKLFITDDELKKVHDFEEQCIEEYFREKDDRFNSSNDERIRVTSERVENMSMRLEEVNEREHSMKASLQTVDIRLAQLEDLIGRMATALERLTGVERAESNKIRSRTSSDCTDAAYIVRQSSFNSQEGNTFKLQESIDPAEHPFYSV

Effect of alanine substitutions at key binding residues on the inhibitory effect [2]	EC50 [5] [nM]	Compound	Effect on heat-induced channel activation [1]	Effect of alanine substitutions at key binding residues on CIM0216-evoked currents [3]	Higher sensitivity of mutants to agonist in dose-response experiments [4]
markedly reduced or abolished		CCC1(c2ccccc2)C(=O)NCNC1=O [primidone]	effectively suppresses heat-induced channel activation		
	700	Cc1cc(NC(=O)C(c2ccccc2)N2CCCc3ccccc32)no1 (stereo not drawn) [CIM0216]		diminished or abolished	up to 3 fold
		pregnenolone sulfate [PregS]			up to 13 fold
